Laboratory results: ChEMBL document CHEMBL1201862, “PubChem BioAssay data set” (2004)
Values joined by “and” are separate entries in the source; they are usually repeats but may differ in a detail not shown here. Identical values can stand only once. Active and inactive are the calls of the source.

Tests used:
[1] = biological target: T1, Leucine aminopeptidase (Plasmodium falciparum 3D7, UniProt Q8IL11); experiment: P. falciparum M17LAP inhibitors, primary screen, biochemical, fluorogenic H-Leu-NHMec substrate, 1536-well (AID 1619); format: functional
T1 sequence (Q8IL11 whole entry): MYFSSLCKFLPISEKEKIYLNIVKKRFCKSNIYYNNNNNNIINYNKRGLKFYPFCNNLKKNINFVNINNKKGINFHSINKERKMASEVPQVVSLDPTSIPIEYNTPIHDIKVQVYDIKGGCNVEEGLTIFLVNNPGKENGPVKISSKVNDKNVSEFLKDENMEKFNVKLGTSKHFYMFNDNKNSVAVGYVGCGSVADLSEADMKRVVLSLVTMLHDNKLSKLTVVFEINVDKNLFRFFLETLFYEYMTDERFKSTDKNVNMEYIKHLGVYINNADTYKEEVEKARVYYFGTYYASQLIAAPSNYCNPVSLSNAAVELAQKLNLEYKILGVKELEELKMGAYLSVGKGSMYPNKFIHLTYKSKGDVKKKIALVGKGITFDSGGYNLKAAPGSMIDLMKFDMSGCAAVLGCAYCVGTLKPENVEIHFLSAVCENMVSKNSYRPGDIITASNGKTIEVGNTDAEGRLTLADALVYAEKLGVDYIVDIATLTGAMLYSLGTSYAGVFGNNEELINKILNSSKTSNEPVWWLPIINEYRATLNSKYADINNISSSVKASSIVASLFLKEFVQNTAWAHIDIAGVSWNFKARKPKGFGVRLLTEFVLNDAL

[2] = biological target: Cytochrome P450 3A4 (Homo sapiens, UniProt P08684);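 further: CYP3A4 tested as one member of a cytochrome P450 panel screen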
[3] = A cytotoxicity screen of small molecule inhibitors of the PhoP region in Salmonella typhi identified in the primary screen. [Related pubchem assays: 1850, 1864, 1985 ]; format: functional
[4] = cells; format: functional, cell-based
[5] = cells; format: functional, cell-based; remark: listed apart in the source
[6] = biological target: Paired box protein Pax-8 (Homo sapiens, UniProt Q06710); experiment: PAX8 transcriptional activity inhibition in RMG-I – RMG-I cells, luciferase, cherry-pick, dose response (AID 687027); format: functional, cell-based;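 further: luciferase reporter driven by Pax8 target thyroperoxidase promoter measured by SteadyGlo luminescence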
[7] = tested on: SN12K1; experiment: cells; format: functional; settings: Homo sapiens
[8] = tested on: P388; experiment: cells; format: functional; settings: Mus musculus
[9] = tested on: P388/ADR; experiment: cells; format: functional; settings: Mus musculus
[10] = intracellular Trypanosoma cruzi inhibitors in host cells – cell-based, plate reader, cherry-pick samples, set 3, dose response (AID 651818); format: functional;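 further: compounds incubated with infected cells for about four days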
[11] = OVCAR8 cell viability loss – plate reader, dry powder samples, PAX8 project, dose response (AID 743197); format: functional, cell-based; settings: OVCAR-8
[12] = OVCAR-3 cell viability loss – plate reader, dry powder samples, PAX8 inhibitor project, dose response (AID 743044); format: functional, cell-based
[13] = IGROV1 cell killing – plate reader, dry powder samples, PAX8 inhibitor project, dose response (AID 743043); format: functional, cell-based; settings: IGROV-1
[14] = biological target: T2, Protein RecA (Mycobacterium tuberculosis, UniProt P9WHJ3); experiment: Fluorescence Cell-Free Homogeneous Dose Retest to Identify Inhibitors of RecA-Intein Splicing Activity. [Related pubchem assays (depositor defined):AID2097, AID2223, AID489010, AID492950]; format: functional
T2 sequence (P9WHJ3 whole entry): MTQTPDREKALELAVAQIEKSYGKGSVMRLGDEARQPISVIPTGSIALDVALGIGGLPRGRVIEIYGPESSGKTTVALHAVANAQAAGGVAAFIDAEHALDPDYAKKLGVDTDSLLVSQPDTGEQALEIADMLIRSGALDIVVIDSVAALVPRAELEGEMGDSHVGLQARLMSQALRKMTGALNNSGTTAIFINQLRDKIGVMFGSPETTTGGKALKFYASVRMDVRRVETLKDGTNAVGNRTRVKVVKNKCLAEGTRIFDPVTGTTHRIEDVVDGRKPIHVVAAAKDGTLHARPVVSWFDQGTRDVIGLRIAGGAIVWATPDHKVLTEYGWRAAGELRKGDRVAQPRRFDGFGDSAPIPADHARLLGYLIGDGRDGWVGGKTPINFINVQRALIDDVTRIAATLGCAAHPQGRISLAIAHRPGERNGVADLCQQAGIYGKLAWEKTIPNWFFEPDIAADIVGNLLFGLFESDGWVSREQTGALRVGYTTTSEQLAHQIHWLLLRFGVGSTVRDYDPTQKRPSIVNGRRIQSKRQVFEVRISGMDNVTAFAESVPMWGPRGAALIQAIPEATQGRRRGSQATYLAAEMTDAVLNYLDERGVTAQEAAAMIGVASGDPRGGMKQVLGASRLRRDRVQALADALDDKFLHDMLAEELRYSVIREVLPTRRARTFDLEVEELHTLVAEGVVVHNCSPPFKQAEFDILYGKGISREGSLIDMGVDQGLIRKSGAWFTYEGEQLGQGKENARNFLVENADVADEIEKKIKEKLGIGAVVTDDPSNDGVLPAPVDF

[15] = biological target: T3, Replicative DNA helicase DnaB (Mycobacterium tuberculosis, UniProt P9WMR3); experiment: DnaB intein splicing inhibitors, dose response, biochemical, cell-free fluorescence (AID 449749); format: functional
T3 sequence (P9WMR3 whole entry): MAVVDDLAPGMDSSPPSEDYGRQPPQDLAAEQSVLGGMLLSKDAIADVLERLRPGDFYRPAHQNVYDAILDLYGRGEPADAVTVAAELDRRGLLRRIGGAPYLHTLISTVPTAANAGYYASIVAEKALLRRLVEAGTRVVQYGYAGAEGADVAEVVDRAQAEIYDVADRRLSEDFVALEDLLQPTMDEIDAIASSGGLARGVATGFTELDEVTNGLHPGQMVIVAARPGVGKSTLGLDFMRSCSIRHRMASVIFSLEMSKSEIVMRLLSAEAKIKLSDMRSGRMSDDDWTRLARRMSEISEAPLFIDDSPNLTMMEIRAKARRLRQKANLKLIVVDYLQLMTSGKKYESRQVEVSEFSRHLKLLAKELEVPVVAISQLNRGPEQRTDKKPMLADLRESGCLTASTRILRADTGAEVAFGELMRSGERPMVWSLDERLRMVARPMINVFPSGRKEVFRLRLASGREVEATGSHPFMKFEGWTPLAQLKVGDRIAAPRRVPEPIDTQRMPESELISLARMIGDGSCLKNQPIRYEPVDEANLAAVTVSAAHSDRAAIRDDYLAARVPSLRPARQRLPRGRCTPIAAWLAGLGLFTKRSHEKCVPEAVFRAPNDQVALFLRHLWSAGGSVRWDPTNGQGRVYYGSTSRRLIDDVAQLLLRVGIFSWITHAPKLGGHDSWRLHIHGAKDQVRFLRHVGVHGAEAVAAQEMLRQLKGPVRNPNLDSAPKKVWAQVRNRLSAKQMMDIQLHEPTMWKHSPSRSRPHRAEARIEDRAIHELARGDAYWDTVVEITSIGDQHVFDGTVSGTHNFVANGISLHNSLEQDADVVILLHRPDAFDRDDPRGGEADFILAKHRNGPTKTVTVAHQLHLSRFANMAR

[16] = biological target: Large T antigen (Simian virus 40, UniProt P03070); format: functional, Betapolyomavirus macacae;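 further: Confirmatory-stage PubChem screen for compounds that inhibit SV40 T antigen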
[17] = biological target: FAD-linked sulfhydryl oxidase ALR (Homo sapiens, UniProt P55789); experiment: ALR-catalysed DTT oxidation blockers – biochemical, H2O2 detection, luminescence, cherry-pick, dose response (AID 493248)
[18] = Luminescence Cell-Based Dose Response HTS to Identify Activators of Luciferase Translation or Activity in H4 […] Cells. [Related pubchem assays: 1829 (Project Summary), 1814 (Primary HTS)]; format: functional
[19] = biological target: T4, Low molecular weight phosphotyrosine protein phosphatase (Homo sapiens, UniProt P24666); format: functional; settings: read-out: IC50_Mean;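 further: Dose-response confirmation assay measuring inhibition of LMPTP enzyme activity by fluorescence intensity read-out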
T4 sequence (P24666 whole entry): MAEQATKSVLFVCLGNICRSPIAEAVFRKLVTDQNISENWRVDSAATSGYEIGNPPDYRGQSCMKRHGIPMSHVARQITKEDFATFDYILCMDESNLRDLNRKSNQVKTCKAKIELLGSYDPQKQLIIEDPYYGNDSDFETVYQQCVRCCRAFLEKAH

[20] = Luminescence Cell-Based Dose Confirmation HTS to Identify Activators of 5'UTR Stem-Loop Driven Alpha-Synuclein mRNA Translation in H4 Neuroglioblastoma Cells. [Related pubchem assays: 1829 (Project Summary), 1814 (Primary HTS)]; format: functional
[21] = tested on: H4; experiment: Luminescence Cell-Based Dose Response HTS to Identify Activators of 5'UTR Stem-Loop Driven Prion Protein mRNA Translation in H4 Neuroglioblastoma Cells. [Related pubchem assays: 1829 (Project Summary), 1814 (Primary HTS)]; format: functional; settings: Homo sapiens

Paired box protein Pax-8, sequence (Q06710 whole entry): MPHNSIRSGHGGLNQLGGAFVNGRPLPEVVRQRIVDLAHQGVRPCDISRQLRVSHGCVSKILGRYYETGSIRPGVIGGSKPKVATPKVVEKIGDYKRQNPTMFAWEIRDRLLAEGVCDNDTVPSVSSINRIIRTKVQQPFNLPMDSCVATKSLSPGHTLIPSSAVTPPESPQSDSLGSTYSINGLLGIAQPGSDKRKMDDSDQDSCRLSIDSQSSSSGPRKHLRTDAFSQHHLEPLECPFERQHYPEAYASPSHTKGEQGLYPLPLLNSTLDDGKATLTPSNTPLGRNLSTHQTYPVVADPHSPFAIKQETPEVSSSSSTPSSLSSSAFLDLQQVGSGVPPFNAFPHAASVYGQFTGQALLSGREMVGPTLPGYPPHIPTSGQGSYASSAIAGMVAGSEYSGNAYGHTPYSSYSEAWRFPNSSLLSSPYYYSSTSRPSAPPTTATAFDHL
Large T antigen, sequence (P03070 whole entry): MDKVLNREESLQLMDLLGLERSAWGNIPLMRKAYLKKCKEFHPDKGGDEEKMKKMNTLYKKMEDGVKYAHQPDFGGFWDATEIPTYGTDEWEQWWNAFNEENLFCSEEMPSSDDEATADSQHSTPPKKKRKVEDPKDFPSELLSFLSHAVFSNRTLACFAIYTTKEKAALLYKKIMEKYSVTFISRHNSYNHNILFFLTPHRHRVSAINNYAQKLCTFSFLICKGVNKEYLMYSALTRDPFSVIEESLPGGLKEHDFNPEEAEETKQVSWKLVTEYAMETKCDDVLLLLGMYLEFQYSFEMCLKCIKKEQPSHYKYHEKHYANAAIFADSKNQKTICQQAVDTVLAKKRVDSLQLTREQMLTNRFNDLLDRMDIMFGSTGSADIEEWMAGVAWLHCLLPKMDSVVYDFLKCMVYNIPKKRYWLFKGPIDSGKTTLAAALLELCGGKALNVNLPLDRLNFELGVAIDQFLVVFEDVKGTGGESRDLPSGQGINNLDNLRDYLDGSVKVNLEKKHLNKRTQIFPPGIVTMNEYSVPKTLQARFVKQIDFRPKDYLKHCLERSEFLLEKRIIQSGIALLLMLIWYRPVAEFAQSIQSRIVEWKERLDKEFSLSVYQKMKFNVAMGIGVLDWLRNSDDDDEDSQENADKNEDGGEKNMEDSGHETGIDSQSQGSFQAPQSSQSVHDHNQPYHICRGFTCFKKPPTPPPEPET
FAD-linked sulfhydryl oxidase ALR, sequence (P55789 whole entry): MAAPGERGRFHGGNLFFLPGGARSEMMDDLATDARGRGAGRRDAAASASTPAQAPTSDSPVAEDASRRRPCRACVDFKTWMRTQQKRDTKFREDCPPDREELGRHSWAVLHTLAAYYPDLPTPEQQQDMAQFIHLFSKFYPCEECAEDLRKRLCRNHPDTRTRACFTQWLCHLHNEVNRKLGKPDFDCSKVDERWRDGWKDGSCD
Cytochrome P450 3A4, sequence (P08684 whole entry): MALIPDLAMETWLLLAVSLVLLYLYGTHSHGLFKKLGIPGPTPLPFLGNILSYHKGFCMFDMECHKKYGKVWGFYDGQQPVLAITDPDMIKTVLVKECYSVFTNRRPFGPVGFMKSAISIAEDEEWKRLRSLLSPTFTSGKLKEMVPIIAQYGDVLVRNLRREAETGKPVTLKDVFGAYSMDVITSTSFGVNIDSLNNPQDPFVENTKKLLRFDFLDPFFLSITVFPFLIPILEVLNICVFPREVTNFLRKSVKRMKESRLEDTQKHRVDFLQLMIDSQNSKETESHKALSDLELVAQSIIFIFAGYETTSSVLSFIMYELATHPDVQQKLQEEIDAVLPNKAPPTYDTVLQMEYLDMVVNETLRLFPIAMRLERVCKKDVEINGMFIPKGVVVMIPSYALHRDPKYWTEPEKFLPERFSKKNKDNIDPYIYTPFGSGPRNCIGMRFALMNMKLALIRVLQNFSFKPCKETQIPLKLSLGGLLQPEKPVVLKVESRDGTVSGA

**Q.** For `O=C1CC(=O)C(n2cncn2)C(c2ccc(Cl)cc2Cl)C1` (stereo unspecified), which IC50 [1] is on record?
**A.** Its IC50 is 17.9 µM (active).

**Q.** With `CC(=O)c1cccc(NC(=O)CCC2CCCC2)c1` as the molecule, how does the AC50 [2] read?
**A.** Its AC50 is 28.2 µM (inconclusive).

**Q.** And the EC50 [3]?
**A.** The EC50 was > 50 µM (active).

**Q.** For `O=C(O)C1CC=CCC1C(=O)NCCc1ccccc1` (stereo unspecified), which EC50 [4] is on record?
**A.** Its EC50 is > 29.9 µM (inactive).

**Q.** And the IC50 [5]?
**A.** The IC50 was > 29.9 µM (inactive).

**Q.** Which IC50 [1] does the source give for `COc1ccc(CNC(=O)C2CC(C)=C(C)CC2C(=O)O)cc1` (stereo unspecified) here?
**A.** Its IC50 is 43.7 µM (active).

**Q.** With `Cc1ccc(-n2c(C)cc(C(=O)NS(=O)(=O)c3ccc(C)cc3)c2C)cc1` as the molecule, how does the IC50 [1] read?
**A.** Its IC50 is 25.4 µM (active).

**Q.** Which EC50 [3] does the source give for `Cc1cccc(CN2C3=NCCCN3c3ccccc32)c1` here?
**A.** Its EC50 is > 50 µM (active).

**Q.** For `COc1ccc(NS(=O)(=O)c2cccc(NC(=O)c3ccccn3)c2)cc1`, which EC50 [3] is on record?
**A.** Its EC50 is > 50 µM (active).

**Q.** For `C(=NOCCc1ccccc1)c1cccnc1`, which EC50 [4] is on record?
**A.** Its EC50 is > 29.8 µM (inactive).

**Q.** What about the IC50 [5] of the same molecule?
**A.** Its IC50 is > 29.8 µM (inactive).

**Q.** For `C=Cc1cc(OC)c2c(c1)c(=O)oc1c2cc(OC)c2c(O)ccc(C3OC(C)C(O)C(C)(O)C3O)c21` (stereo unspecified), which AC50 [6] is on record?
**A.** Its AC50 is < 0.26 µM (active).

**Q.** And the GI50 [7]?
**A.** The GI50 was 0.0269 µM (active).

**Q.** What about the GI50 [8] of the same molecule?
**A.** Its GI50 is 0.0225 µM (active).

**Q.** And the GI50 [9]?
**A.** Its GI50 is 0.0225 µM (active).

**Q.** Which results are given for `Cc1cc(Cl)nc(Cl)c1C(=O)NCCc1ccccc1`?
**A.** EC50 [4]: > 29.9 µM (inactive); IC50 [5]: > 29.9 µM (inactive)

**Q.** Which AC50 [10] does the source give for `C[C@@H]1CN([C@H](C)CO)C(=O)Cc2cc(NC(=O)NC3CCCCC3)ccc2O[C@H]1CN(C)Cc1ccc(-c2ccccc2)cc1` here?
**A.** The AC50 was 4.51 µM (active).

**Q.** Which AC50 [10] does the source give for `C[C@H](CO)N1C[C@H](C)[C@H](CN(C)Cc2ccc(C(=O)Nc3ccccc3N)cc2)Oc2c(cccc2N(C)C)C1=O` here?
**A.** Its AC50 is 3.67 µM (active).

**Q.** Which AC50 [10] does the source give for `COc1ccc(S(=O)(=O)Nc2ccc3c(c2)CC(=O)N([C@@H](C)CO)C[C@@H](C)[C@@H](CN(C)Cc2ccc(C(F)(F)F)cc2)O3)cc1` here?
**A.** Its AC50 is 5.93 µM (active).

**Q.** With `C[C@H](CO)N1C[C@H](C)[C@H](CN(C)C(=O)Nc2ccc(C(F)(F)F)cc2)Oc2c(NC(=O)Nc3ccc(C(F)(F)F)cc3)cccc2C1=O` as the molecule, how does the AC50 [10] read?
**A.** The AC50 was 6.56 µM (active).

**Q.** For `C[C@@H]1CN([C@H](C)CO)C(=O)c2cc(NS(=O)(=O)c3ccccc3)ccc2O[C@@H](C)CCCCO[C@@H]1CN(C)CC1CCCCC1`, which AC50 [6] is on record?
**A.** The AC50 was 19.6 µM (active).

**Q.** And the AC50 [11]?
**A.** The AC50 was 68 µM (active).

**Q.** What about the AC50 [12] of the same molecule?
**A.** The AC50 was 53.9 µM (active).

**Q.** What does the source list for `C[C@@H]1CCCCO[C@@H](CN(C)S(=O)(=O)c2ccc(Cl)cc2)[C@H](C)CN([C@H](C)CO)C(=O)c2cc(NS(=O)(=O)c3ccc(F)cc3)ccc2O1`?
**A.** AC50 [6]: 3.41 µM (active); AC50 [13]: 57.7 µM (active)

**Q.** For `O=C(Cc1cc(O)n[nH]1)N/N=C/c1c(Cl)cccc1Cl`, which EC50 [14] is on record?
**A.** The EC50 was 6.26 µM (inconclusive) and 1.51 µM (active).

**Q.** What about the AC50 [15] of the same molecule?
**A.** Its AC50 is 2.66 µM (active) and 7.7 µM (active).

**Q.** What about the IC50 [1] of the same molecule?
**A.** The IC50 was 49.9 µM (active).

**Q.** For `C/C(=N/NC(=O)Cc1c(C)n[nH]c1O)c1ccc(O)cc1`, which IC50 [16] is on record?
**A.** The IC50 was 31.4 µM (active).

**Q.** And the AC50 [17]?
**A.** Its AC50 is 1.49 µM (active).

**Q.** What about the IC50 [1] of the same molecule?
**A.** Its IC50 is 4.09 µM (active).

**Q.** What does the source list for `CCn1cc(C(=O)O)c(=O)c2cnc(N3CCN(C(=S)Nc4ccccc4Cl)CC3)nc21`?
**A.** EC50 [18]: > 120 µM (not active); IC50 [19]: 35.9 µM (inactive); EC50 [20]: > 120 µM (not active); EC50 [21]: > 120 µM (not active)
